Results published in PMC7667029, “A Targeted Computational Screen of the SWEETLEAD Database Reveals FDA-Approved Compounds with Anti-Dengue Viral Activity” (mBio, 2020).
Entries after “also recorded” stand apart in the source; their conditions may differ. Like-named read-outs stand apart in the source and are kept apart here.

What was measured:
DENV2 [1] = assay: Antiviral activity in DENV2-infected Huh7 cells, infectious virus in supernatant by plaque assay; assay type: cell-based, dengue virus; details: Dengue virus
Method: FIG 2 Pyrimethamine inhibits dengue virus and NS2B/3 proteinase cleavage like ARDP0006. (A) Chemical structures and (B) ROCS overlay of ARDP0006 and pyrimethamine. […] Infectious virus in cell supernatant was quantified by plaque assay at 24 hpi (left y axis, black or red). Cell viability was measured at the same pyrimethamine doses 24 h posttreatment by WST-1 assay (right y axis, gray). Viral titer and cell viability were normalized to DMSO-treated samples. (D) Splenic titers of DENV2-infected AGB6 mice at 4 days postinfection. Mice were infected with 1 × 10^6 PFU DENV2 and treated twice daily with 20 mg/kg pyrimethamine (n = 9) or a vehicle control (n = 10). Data were analyzed by two-tailed unpaired t test. (E) Cleavage kinetics of NS2B/3/4A in the presence of 100 μM pyrimethamine. NS2B/3/4A protein was expressed in vitro and radiolabeled with [^35S]methionine, followed by treatment with 100 μM pyrimethamine or DMSO. Reaction samples were obtained over a 45-min time course, separated by SDS-PAGE, and the fraction of uncleaved proteinase precursor remaining was determined as described previously ([23]). Data from three replicates were fit using single-phase exponential decay functions, and P value was determined by comparing the rate constant, K, of the models using the extra sum-of-squares F test.
Dengue plaque assays were carried out on BHK-21 cells in 24-well plates. Cells were infected with 10-fold serial dilutions of virus, which were allowed to adsorb for at least 1 h at 37°C, and overlaid with standard cell culture medium plus 0.37% (w/vol) sodium bicarbonate and 0.8% (w/vol) Aquacide II (Millipore Calbiochem). After 7 days of incubation at 37°C, 5% CO2, cells were fixed with 5% (final) formaldehyde and stained with crystal violet for plaque enumeration.
Between 4 × 10^4 and 1 × 10^5 Huh7 cells per well were seeded into 24-well plates 1 day prior to infection. Compounds were diluted to 100× final concentration in DMSO and then further diluted 1:100 into appropriate cell culture. Unless otherwise indicated, tested compounds were present for 1 h pretreatment and readministered for posttreatment following infection. […] Media and drugs were removed from cells for infection at a multiplicity of infection (MOI) of 0.1 or 0.5 in 200 μl cold medium per well. After 1 h at 37°C, virus inoculum was removed by aspiration and replaced with medium plus compound or control. After 24-h total infection, infectious virus was quantified by plaque assay. Antiviral IC50 dose-response curves were fitted in GraphPad Prism 8 using the “[inhibitor] versus response, variable slope” function with a constraint “bottom > 0.” IC90 values are defined as the dose at which “y = (span × 0.1) + bottom.”

NS2B/3 proteinase = biological target: NS2B/3 proteinase; parameters: method as in PMID 30228122; details: read-out: IC50, inhibition of NS2B/3 proteinase cleavage activity in solution; cited from earlier work
dengue virus [2] = system: dengue virus; parameters: method as in PMID 25823617; details: read-out: IC50, inhibition of viral growth in cell culture; cited from earlier work
dengue virus [3] = assay: Initial screening of hit compounds for anti-dengue activity in tissue culture cells (Table S1); assay type: cell-based; details: viral titer relative to vehicle, tissue culture cell lines (BHK-21 48 hpi, Fig. S1; Huh7, Fig. 2C, 3C, 4C)
Method: For each query molecule, the top 500 compound hits obtained from the ROCS algorithm, as ranked by the Tanimoto combo score (see Data Set S1 in the supplemental material), were manually inspected for similar chemical and structural features. They were further prioritized by factors such as a lack of known side effects, commercial availability, and the intellectual property considerations that would be needed for worldwide, inexpensive use. Fourteen candidates were tested for their effects on dengue virus growth and toxicity in BHK-21 and Huh7 cells (see Table S1 and Fig. S1 in the supplemental material).
Supplementary file : TABLE S1 Summary of hits for lead compounds ARDP0006 and ST-148 screened for anti-dengue activity in tissue culture cells. Hit compounds were tested for anti-dengue activity and cell toxicity in tissue culture cell lines. Antiviral activity is summarized as follows: −, not antiviral, with titer greater than 50% of vehicle; +, weakly antiviral, with titer between 20 and 50% of vehicle; ++, moderately antiviral, with titer between 5 and 20% of vehicle; +++, highly antiviral, with titer less than 5% of vehicle. Toxicity at these doses is represented as follows: −, nontoxic, with cell viability greater than 80% of vehicle; +, mild toxicity, with cell viability between 60 and 80% of vehicle; +++, high toxicity, with cell viability less than 60% of vehicle. Data summarized here are depicted graphically in Fig. S1 and Fig. 2C, 3C, and [4]C. The Tanimoto combo score of each hit during initial ROCS screening is indicated; higher Tanimoto combo scores are indicative of increased chemical similarity. Download Table S1, PDF file, 0.04 MB.
Supplementary file : FIG S1 Initial screening of eliminated hit compounds for anti-dengue activity in tissue culture cells. BHK-21 cells were pretreated with the compounds at the indicated concentrations for 30 min, infected with dengue virus at an MOI of 0.1 PFU/cell for 1 h, and then posttreated with compound. At 48 hpi, cellular supernatant was collected and titered by plaque assay (purple). Cell viability in uninfected cells in the presence of compounds for 48 h was measured by WST assay (gray). Both viral titer and cell viability are normalized to their relative DMSO vehicle control, N = 2. Download FIG S1, PDF file, 0.06 MB.

NS2B/3/4A = biological target: T1, NS2B/3/4A (Dengue virus type 2, UniProt P29990); assay: In vitro translation-based proteinase cleavage assay of NS2B/3/4A precursor; assay type: biochemical; details: 100 μM pyrimethamine vs DMSO, 45-min time course, translation extracts
T1 construct: NS2B/3/4A protein was expressed in vitro and radiolabeled with [^35S]methionine; made in house; host or cells: rabbit reticulocyte lysate (TNT coupled T7; Promega), cell-free in vitro translation
Method: FIG 2 Pyrimethamine inhibits dengue virus and NS2B/3 proteinase cleavage like ARDP0006. (A) Chemical structures and (B) ROCS overlay of ARDP0006 and pyrimethamine. […] Compounds were added 1 h prior to infection, removed, and then readministered after removal of viral inoculum. Infectious virus in cell supernatant was quantified by plaque assay at 24 hpi (left y axis, black or red). Cell viability was measured at the same pyrimethamine doses 24 h posttreatment by WST-1 assay (right y axis, gray). Viral titer and cell viability were normalized to DMSO-treated samples. (D) Splenic titers of DENV2-infected AGB6 mice at 4 days postinfection. Mice were infected with 1 × 10^6 PFU DENV2 and treated twice daily with 20 mg/kg pyrimethamine (n = 9) or a vehicle control (n = 10). Data were analyzed by two-tailed unpaired t test. […] Reaction samples were obtained over a 45-min time course, separated by SDS-PAGE, and the fraction of uncleaved proteinase precursor remaining was determined as described previously ([23]). Data from three replicates were fit using single-phase exponential decay functions, and P value was determined by comparing the rate constant, K, of the models using the extra sum-of-squares F test. […]
Proteinase cleavage assays were performed as previously described ([23]). […] Protein quantification was performed using ImageQuant TL 8.1 software (GE Healthcare Life Sciences).

[4] = ref PubChem database, cited from earlier work; for LD50: single dose
DENV2 [5] = assay: DENV2-infected AGB6 mouse model (splenic titer, survival); assay type: in vivo, AGB6 mice; details: for Splenic titer of dengue virus: AGB6 mice, 20 mg/kg pyrimethamine twice daily, oral gavage, 4 days postinfection, 20 mg/kg
dengue virus [6] = assay: Antiviral activity in VPS34 knockout Huh7 cells; assay type: cell-based; details: 5 μM compound, MOI 0.5, 24 hpi
Method: FIG 5 Vandetanib and spautin-1 inhibit dengue maturation and egress in a VPS34-independent manner. […] Cells were pretreated for 1 h, infected for 1 h at an MOI of 0.5 PFU/cell, and posttreated for an additional 23 h. N = 4, one-way ANOVA with Dunnett’s multiple-comparison test. ns, not significant (P > 0.05); **, P < 0.01; ****, P < 0.0001. (C) Huh7 cells transfected with a luciferase-expressing RNA replicon were treated with 3 μM vandetanib (orange) or 1% DMSO vehicle control (black) for 1 h prior to transfection and up to 52 h posttransfection. Luciferase intensity was quantified as a measure of viral protein abundance. Luciferase intensity was shown as relative light units (RLU). The use of an RNA replicon that is directly transfected into cells reflects only translation and RNA replication steps of viral infection, not viral packaging or cell exit. N = 4, two-way ANOVA with Sikak’s multiple-comparison test. […] (D) VPS34 was not required for spautin-1 or vandetanib anti-dengue activity. Wild-type and VPS34 knockout Huh7 cells were treated with 5 μM spautin-1, 5 μM vandetanib, or DMSO. Cells were pretreated, infected at an MOI of 0.5, and posttreated as described above for panels A and B. At 24 hpi, cellular supernatant was collected and titered by plaque assay. N ≥ 3. One-way ANOVA with Dunnett’s multiple-comparison test; *, P < 0.05; **, P < 0.01; ***, P < 0.001; ****, P < 0.0001. […]

dengue virus [7] = assay: Extracellular and intracellular virus quantification in Huh7 cells; assay type: cell-based; details: IC90 dose (spautin-1 2.4 μM, vandetanib 3.6 μM), Huh7, 24 hpi
Method: FIG 5 Vandetanib and spautin-1 inhibit dengue maturation and egress in a VPS34-independent manner. […] Cells were pretreated for 1 h, infected for 1 h at an MOI of 0.5 PFU/cell, and posttreated for an additional 23 h. N = 4, one-way ANOVA with Dunnett’s multiple-comparison test. ns, not significant (P > 0.05); **, P < 0.01; ****, P < 0.0001. (C) Huh7 cells transfected with a luciferase-expressing RNA replicon were treated with 3 μM vandetanib (orange) or 1% DMSO vehicle control (black) for 1 h prior to transfection and up to 52 h posttransfection. Luciferase intensity was quantified as a measure of viral protein abundance. Luciferase intensity was shown as relative light units (RLU). The use of an RNA replicon that is directly transfected into cells reflects only translation and RNA replication steps of viral infection, not viral packaging or cell exit. N = 4, two-way ANOVA with Sikak’s multiple-comparison test. […] (D) VPS34 was not required for spautin-1 or vandetanib anti-dengue activity. Wild-type and VPS34 knockout Huh7 cells were treated with 5 μM spautin-1, 5 μM vandetanib, or DMSO. Cells were pretreated, infected at an MOI of 0.5, and posttreated as described above for panels A and B. At 24 hpi, cellular supernatant was collected and titered by plaque assay. N ≥ 3. One-way ANOVA with Dunnett’s multiple-comparison test; *, P < 0.05; **, P < 0.01; ***, P < 0.001; ****, P < 0.0001.
After 1 h, virus inoculum was aspirated and replaced with medium containing compounds or 1% DMSO. After 24-h total infection, extracellular virus was collected in cellular supernatant and quantified by plaque assay. To collect intracellular virus, cells were washed with PBS, incubated for 3 min at 4°C with high-salt buffer (1 M NaCl, 50 mM sodium bicarbonate [pH 9.5]) to detach cell-associated extracellular virus ([63]), washed twice with PBS, detached with 0.25% trypsin-EDTA, and isolated by centrifugation (500 × g, 5 min, 4°C). Infected cell pellets were resuspended in 750 μl cell culture medium, lysed by repeated freeze/thaw in liquid nitrogen followed by 37°C water bath. Debris was removed by centrifugation (3,200 × g, 5 min, 4°C), and infectious intracellular virus was quantified by BHK-21 plaque assay.

[8] = Huh-7, DENV2-infected Huh7 cells, single infectious cycle, plaque assay at 24 hpi, read-out: IC50 of viral inhibition (infectious extracellular virus)

T1 sequence (P29990 1476-2093): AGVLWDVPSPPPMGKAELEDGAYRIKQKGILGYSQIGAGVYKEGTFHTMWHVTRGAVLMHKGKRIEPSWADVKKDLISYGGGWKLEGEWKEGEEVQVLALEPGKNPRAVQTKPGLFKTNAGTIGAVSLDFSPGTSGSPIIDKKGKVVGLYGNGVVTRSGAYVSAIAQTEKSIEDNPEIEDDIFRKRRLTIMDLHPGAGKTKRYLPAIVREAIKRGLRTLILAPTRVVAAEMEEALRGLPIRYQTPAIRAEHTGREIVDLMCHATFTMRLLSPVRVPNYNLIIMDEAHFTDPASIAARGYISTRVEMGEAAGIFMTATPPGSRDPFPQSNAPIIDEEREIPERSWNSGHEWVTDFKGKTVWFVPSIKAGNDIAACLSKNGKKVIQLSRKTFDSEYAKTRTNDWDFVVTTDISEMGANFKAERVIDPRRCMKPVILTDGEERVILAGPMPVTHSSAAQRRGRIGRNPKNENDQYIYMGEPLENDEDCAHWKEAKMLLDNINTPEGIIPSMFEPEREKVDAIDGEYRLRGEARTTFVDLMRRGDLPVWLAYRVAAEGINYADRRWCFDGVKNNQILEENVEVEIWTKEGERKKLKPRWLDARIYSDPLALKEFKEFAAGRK
T1 sequence (P29990 1346-1475): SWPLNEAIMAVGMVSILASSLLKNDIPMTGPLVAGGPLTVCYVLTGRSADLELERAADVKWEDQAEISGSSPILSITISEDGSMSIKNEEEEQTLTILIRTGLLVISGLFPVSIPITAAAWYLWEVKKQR

SMILES	IC50 (DENV2 [1]; DENV2, Huh-7, read-out: IC50 of viral inhibition (infectious extracellular virus)) [µM]	IC50 (NS2B/3 proteinase) [µM]	IC50 (dengue virus [2]) [µM]	Antiviral (dengue virus [3])	Cleavage kinetics of NS2B/3/4A precursor (NS2B/3/4A)	Cleavage kinetics of NS2B/3/4A precursor (NS2B/3/4A; listed as pyrimethamine)	LD50 ([4]; IP) [mg/kg]	LD50 ([4]; Oral) [mg/kg]	Acute toxicity in words (Table S2) ([4]; healthy mice)	IC50 (DENV2 [1]; [8]) [µM]	Splenic titer of dengue virus (DENV2 [5])	Splenic titer of dengue virus (DENV2 [5]; listed as pyrimethamine)	Mortality on sustained treatment (survival experiments) (DENV2 [5]; infected AGB6 mice, sustained pyrimethamine treatment)	Antiviral activity in VPS34 knockout cells (dengue virus [6])	IC90 (DENV2 [1]; Huh-7, DENV2-infected Huh7 cells, from dose-response curve fit, 24 hpi) [µM]	Extracellular viral titer (dengue virus [7])	Infectious intracellular virus (dengue virus [7])
O=C1c2c(O)ccc([N+](=O)[O-])c2C(=O)c2c([N+](=O)[O-])ccc(O)c21 [ARDP0006]	0.59	620	2.7														
CCc1nc(N)nc(N)c1-c1ccc(Cl)cc1 [Pyrimethamine, pyrimethamine]				+++ (highly antiviral, with titer less than 5% of vehicle)	inhibited intramolecular NS2B/3 cleavage	significantly slowed dengue virus NS2B/3 cleavage; also recorded: slowing proteinase cleavage in translation extracts	74	92	well tolerated	1.2	significantly reduced viral splenic burden	reduced viral loads; also recorded: significant reduction in splenic titer	caused marked mortality				
Fc1ccc(CNc2ncnc3ccc(F)cc23)cc1 [spautin-1]										1.1				retained significant antiviral activity; also recorded: retained their ability to limit dengue virus egress	2.4	significantly reduced; also recorded: reduced extracellular virus	unchanged; also recorded: abundant intracellular virus
